These results are taken from PubChem BioAssay (NCI).

Test systems include BT-549 breast; COLO 205 colon; HCT-116 colon; HOP-92 NSCLC; OVCAR-8 ovarian; PC-3 prostate; SR leukemia; NCI-H522 lung.
What all share (experiment): NCI-60 cell line screen, 48 h

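Values below derive from 48-hour exposures of cells grown in 96-well plates, with endpoints linearly interpolated between the two concentrations bracketing the appropriate inhibition level. GI50: concentration for 50% inhibition of growth. TGI marks complete inhibition of growth.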

Take `O=C(/C=C\c1cc(Br)ccc1O)/C=C/c1cc(Br)ccc1O`: the GI50 is 897 nM in the assay with BT-549 breast; 1550 nM with COLO 205 colon; 345 nM with HCT-116 colon; 1.57 µM with HOP-92 NSCLC; 0.345 µM with OVCAR-8 ovarian; 0.63 µM in the assay with PC-3 prostate. For the same molecule, the GI50 with SR leukemia was 321 nM. Also, the TGI with BT-549 breast is 3.84 µM; in the assay with COLO 205 colon, 3.69 µM; in the assay on HCT-116 colon, 1.26 µM; in the assay with HOP-92 NSCLC, 3.69 µM; with OVCAR-8 ovarian, 11.6 µM; in the assay with PC-3 prostate it was 3.08 µM. The TGI in the assay with SR leukemia came out at 29.7 µM.
Turning to `[N-]=[N+]=NCCCn1c2c(c3ccc([N+](=O)[O-])cc3c1=O)C(=O)c1cc(I)ccc1-2`, the GI50 with COLO 205 colon was 40400 nM; with HCT-116 colon, 2150 nM; with NCI-H522 lung it was 1680 nM; with OVCAR-8 ovarian it was 11.3 µM; in the assay with PC-3 prostate, 11 µM; with SR leukemia, 344 nM. The TGI was over 100 µM in the assay on COLO 205 colon; 26.4 µM in the assay on HCT-116 colon; 12.4 µM with NCI-H522 lung; over 100 µM with OVCAR-8 ovarian; over 100 µM in the assay with PC-3 prostate; 2.87 µM in the assay on SR leukemia.
Take `CN1C(=O)/C(=C2\S/C(=N\c3nnc(-c4ccccc4)o3)NC2=O)c2ccccc21`: the GI50 in the assay with BT-549 breast was over 100000 nM; with COLO 205 colon, over 100000 nM; with HCT-116 colon, 92400 nM; in the assay on HOP-92 NSCLC, over 100 µM; in the assay on NCI-H522 lung, over 100000 nM; in the assay on OVCAR-8 ovarian, over 100 µM. In addition, in the assay on PC-3 prostate, the GI50 is over 100 µM. Also, the TGI in the assay on BT-549 breast, in the assay with COLO 205 colon, in the assay with HCT-116 colon, in the assay on HOP-92 NSCLC, in the assay on NCI-H522 lung and in the assay with OVCAR-8 ovarian was over 100 µM each time. The molecule further returned a TGI with PC-3 prostate of over 100 µM.
Regarding `c1ccc(COCC[P+](c2ccccc2)(c2ccccc2)c2ccccc2)cc1`, the GI50 in the assay on BT-549 breast was 953 nM; with COLO 205 colon, 868 nM; with HCT-116 colon it was 679 nM; with NCI-H522 lung, 467 nM; in the assay with OVCAR-8 ovarian, 1.67 µM; with PC-3 prostate, 0.519 µM. In addition, the GI50 in the assay on SR leukemia is 725 nM. In addition, the TGI was found to be 15.5 µM in the assay with BT-549 breast; 3.65 µM with COLO 205 colon; 12.5 µM with HCT-116 colon; 4.17 µM in the assay on NCI-H522 lung; 10.8 µM with OVCAR-8 ovarian; 5.32 µM in the assay on PC-3 prostate. The molecule also yielded a TGI in the assay with SR leukemia of 11 µM.
On to `CCCCOC(=O)/C=C\C(=O)NC(N)=O`, for which the GI50 is 14000 nM with COLO 205 colon; 13400 nM in the assay with HCT-116 colon; 10.9 µM in the assay on HOP-92 NSCLC; 29.7 µM with OVCAR-8 ovarian; 25 µM with PC-3 prostate; 35700 nM with SR leukemia. Besides, the TGI in the assay with COLO 205 colon was 29.1 µM; with HCT-116 colon it was 27.8 µM; in the assay with HOP-92 NSCLC, 24.4 µM; with OVCAR-8 ovarian, over 100 µM; with PC-3 prostate it was 69.7 µM; in the assay on SR leukemia it was over 100 µM.
Consider `CC(=O)N(C)c1cc(NCc2ccccc2)ccc1OCc1ccccc1`, for which the TGI is 40.3 µM in the assay on BT-549 breast; 54.8 µM in the assay on COLO 205 colon; over 100 µM in the assay with HCT-116 colon; 30 µM with HOP-92 NSCLC; 34 µM in the assay on NCI-H522 lung; 32.7 µM with OVCAR-8 ovarian. Further, in the assay with SR leukemia, the TGI is 32.8 µM.
Consider `O=C(/C=C/c1ccco1)Nc1ncc(Cc2cccc(C(F)(F)F)c2)s1`, for which the GI50 is 248 nM in the assay on BT-549 breast; 43.3 nM in the assay on COLO 205 colon; 43.8 nM in the assay with HCT-116 colon; 32.1 nM in the assay with NCI-H522 lung; 0.138 µM in the assay on OVCAR-8 ovarian; 0.055 µM in the assay on PC-3 prostate. In addition, the GI50 in the assay with SR leukemia was 33.4 nM. Besides, the TGI in the assay with BT-549 breast was over 21.2 µM; in the assay on COLO 205 colon, 0.166 µM; in the assay on HCT-116 colon it was over 32.8 µM; in the assay with NCI-H522 lung, 0.328 µM; in the assay on OVCAR-8 ovarian it was over 37.7 µM; with PC-3 prostate it was over 44.3 µM. In addition, the TGI with SR leukemia amounted to 3.67 µM.
Take `COc1cccc(CCNC(=O)CC(c2ccccc2)(c2ccccc2)c2ccccc2)c1`: the GI50 is over 100000 nM in the assay with BT-549 breast; 12800 nM with COLO 205 colon; 2580 nM with HCT-116 colon; over 100 µM in the assay with HOP-92 NSCLC; 4.98 µM in the assay with OVCAR-8 ovarian; 6.12 µM in the assay on PC-3 prostate. The TGI in the assay on BT-549 breast was over 100 µM; in the assay on COLO 205 colon, over 100 µM; with HCT-116 colon, 26.7 µM; with HOP-92 NSCLC, over 100 µM; in the assay with OVCAR-8 ovarian it was 47.7 µM; in the assay on PC-3 prostate it was over 100 µM.
On to `COc1ccc(NC(=S)C#N)cc1`, for which the TGI with BT-549 breast, with COLO 205 colon, in the assay on HCT-116 colon, with HOP-92 NSCLC, in the assay on OVCAR-8 ovarian and in the assay with PC-3 prostate was over 100 µM throughout. This molecule also came in with a TGI with SR leukemia of over 100 µM.
For the molecule `Nc1nc(=S)c2ncn(C3OC(CO)C(O)C3O)c2[nH]1` (stereo not given), the GI50 in the assay with BT-549 breast was 2120 nM; in the assay on COLO 205 colon it was 2180 nM; with HCT-116 colon, 347 nM; in the assay with HOP-92 NSCLC, 0.33 µM; in the assay with NCI-H522 lung it was 1800 nM; with OVCAR-8 ovarian, 0.903 µM. Moreover, the GI50 with PC-3 prostate is 2.34 µM. The TGI was over 100 µM with BT-549 breast; 7.82 µM in the assay on COLO 205 colon; 7.53 µM with HOP-92 NSCLC; over 100 µM in the assay on NCI-H522 lung; over 100 µM in the assay on OVCAR-8 ovarian; over 100 µM with PC-3 prostate.
`COC(=O)CC1C2(C)C3=C(C)C(c4ccoc4)CC3OC2C2OC(=O)C3(C)C=CC(=O)C1(C)C23` (stereo not given): the TGI amounted to 2.35 µM with BT-549 breast; 3.58 µM with COLO 205 colon; 2.28 µM in the assay with HCT-116 colon; 5.52 µM in the assay with HOP-92 NSCLC; 3.22 µM in the assay on NCI-H522 lung; 5.44 µM in the assay with OVCAR-8 ovarian. The same molecule had a TGI in the assay on PC-3 prostate of 3.43 µM.
Turning to `Cc1cncc(-c2nc(NCCc3c[nH]c4ccccc34)c3ncn(C(C)C)c3n2)c1`, the GI50 in the assay on BT-549 breast is 2990 nM; with COLO 205 colon, 2900 nM; with HCT-116 colon it was 3880 nM; in the assay on HOP-92 NSCLC, 3.63 µM; in the assay with NCI-H522 lung, 5660 nM; in the assay on OVCAR-8 ovarian, 4.6 µM. The GI50 in the assay on PC-3 prostate is 3.98 µM. Moreover, the TGI with BT-549 breast is 15 µM; in the assay on COLO 205 colon, 7.26 µM; in the assay with HCT-116 colon it was over 100 µM; in the assay on HOP-92 NSCLC, 15.5 µM; with NCI-H522 lung, 23.2 µM; with OVCAR-8 ovarian it was over 100 µM. This molecule also displayed a TGI with PC-3 prostate of 35.8 µM.
